This is an account of results in patent publication US5807886A, “Bicyclic amidine dervatives as inhibitors of nitric oxide synthetase” (priority 1994, dated 1998).

In experiment [1] the target is T1, endothelial nitric oxide synthetase (Homo sapiens, UniProt P29474).
T1 construct: Enzyme may be isolated from human umbilical vein endothelial cells (HUVECs); endogenous in cells; host or cells: HUVECs (cells purchased from Clonetics Corp, San Diego); CHAPS-solubilised pellet supernatant
Kind of experiment: Screen C: endothelial nitric oxide synthetase inhibiting activity. It is filed as biochemical.
Experimental: HUVECs were purchased from Clonetics Corp (San Diego, Calif. USA) and cultured to confluency. Cells can be maintained to passage 35-40 without significant loss of yield of nitric oxide synthetase. When cells reach confluency, they are resuspended in Dulbecco's phosphate buffered saline, centrifuged at 800 rpm for 10 mins, the cell pellet homogenised in ice-cold 50 mM Tris-HCl , 1 mM EDTA, 10% glycerol, 1 mM phenylmethylsulphonylfluoride, 2 μM leupeptin at pH 4.2. Following centrifugation at 34,000 rpm for 60 mins, the pellet is solubilised in the homogenisation buffer which also contains 20 mM CHAPS. After a 30 min incubation on ice, the suspension is centrifuged at 34,000 rpm for 30 mins. The resulting supernatant is stored at -80° C. until use. […]
Labelled L-citrulline is separated from labelled L-arginine by chromatography over a Dowex AG-50W-X8 200-400 mesh column. […] The L-citrulline is then quantified by scintillation counting. […]

Experiment [2] addresses T2, macrophage nitric oxide synthetase (Mus musculus, UniProt P29477).
T2 construct: Enzyme is prepared, after induction, from the cultured murine macrophage cell line J774A-1; endogenous in cells; host or cells: J774A-1 murine macrophages induced with LPS and IFN-gamma (lysate); cells from laboratories of the Imperial Cancer Research Fund
Nature of the experiment: Screen B: macrophage nitric oxide synthetase inhibiting activity. The settings on record: macrophage IC50 / neuronal IC50. It is filed as biochemical, murine. From the text:
The enzyme nitric oxide synthetase has a number of isoforms and compounds of formula I, or pharmaceutically acceptable salts thereof, may be screened for nitric oxide synthetase inhibiting activity by procedures based on those of Bredt and Snyder in Proc. Natl. Acad. Sci. (1990) 87, 682-685 and Forstermann et. al., Eur. J. Pharm. (1992) 225, 161-165 as follows. Nitric oxide synthetase converts ^3 H-L-arginine to ^3 H-L-citrulline which can be separated by cation exchange chromatography and quantified by scintillation counting.
Enzyme is prepared, after induction, from the cultured murine macrophage cell line J774A-1 (obtained from laboratories of the Imperial Cancer Research Fund).
J774A-1 cells are cultured in Dulbecco's Modified Eagles Medium (DMEM) supplemented with 10% foetal bovine serum, 4 mM L-glutamine and antibiotics (100 units/ml penicillin G, 100 μg/ml streptomycin & 0.25 μg/ml amphotericin B).
Cells are routinely grown in 225 cm^2 flasks containing 35 ml medium kept at 37° C. and in a humidified atmosphere containing 5% CO2.
Nitric oxide synthetase is produced by cells in response to interferon-γ (IFNγ) and lipopolysaccharide (LPS). […]
Labelled L-citrulline is separated from labelled L-arginine using Dowex AG-50W. […] After allowing the samples to dry the L-citrulline is quantified by scintillation counting. […]

For experiment [3], the target named is T3, neuronal nitric oxide synthetase (Rattus norvegicus, UniProt P29476).
T3 construct: Enzyme was isolated from rat hippocampus or cerebellum; from tissue; host or cells: male Sprague-Dawley rat cerebellum or hippocampus, 20,000 g supernatant
T3 sequence (P29476 whole entry): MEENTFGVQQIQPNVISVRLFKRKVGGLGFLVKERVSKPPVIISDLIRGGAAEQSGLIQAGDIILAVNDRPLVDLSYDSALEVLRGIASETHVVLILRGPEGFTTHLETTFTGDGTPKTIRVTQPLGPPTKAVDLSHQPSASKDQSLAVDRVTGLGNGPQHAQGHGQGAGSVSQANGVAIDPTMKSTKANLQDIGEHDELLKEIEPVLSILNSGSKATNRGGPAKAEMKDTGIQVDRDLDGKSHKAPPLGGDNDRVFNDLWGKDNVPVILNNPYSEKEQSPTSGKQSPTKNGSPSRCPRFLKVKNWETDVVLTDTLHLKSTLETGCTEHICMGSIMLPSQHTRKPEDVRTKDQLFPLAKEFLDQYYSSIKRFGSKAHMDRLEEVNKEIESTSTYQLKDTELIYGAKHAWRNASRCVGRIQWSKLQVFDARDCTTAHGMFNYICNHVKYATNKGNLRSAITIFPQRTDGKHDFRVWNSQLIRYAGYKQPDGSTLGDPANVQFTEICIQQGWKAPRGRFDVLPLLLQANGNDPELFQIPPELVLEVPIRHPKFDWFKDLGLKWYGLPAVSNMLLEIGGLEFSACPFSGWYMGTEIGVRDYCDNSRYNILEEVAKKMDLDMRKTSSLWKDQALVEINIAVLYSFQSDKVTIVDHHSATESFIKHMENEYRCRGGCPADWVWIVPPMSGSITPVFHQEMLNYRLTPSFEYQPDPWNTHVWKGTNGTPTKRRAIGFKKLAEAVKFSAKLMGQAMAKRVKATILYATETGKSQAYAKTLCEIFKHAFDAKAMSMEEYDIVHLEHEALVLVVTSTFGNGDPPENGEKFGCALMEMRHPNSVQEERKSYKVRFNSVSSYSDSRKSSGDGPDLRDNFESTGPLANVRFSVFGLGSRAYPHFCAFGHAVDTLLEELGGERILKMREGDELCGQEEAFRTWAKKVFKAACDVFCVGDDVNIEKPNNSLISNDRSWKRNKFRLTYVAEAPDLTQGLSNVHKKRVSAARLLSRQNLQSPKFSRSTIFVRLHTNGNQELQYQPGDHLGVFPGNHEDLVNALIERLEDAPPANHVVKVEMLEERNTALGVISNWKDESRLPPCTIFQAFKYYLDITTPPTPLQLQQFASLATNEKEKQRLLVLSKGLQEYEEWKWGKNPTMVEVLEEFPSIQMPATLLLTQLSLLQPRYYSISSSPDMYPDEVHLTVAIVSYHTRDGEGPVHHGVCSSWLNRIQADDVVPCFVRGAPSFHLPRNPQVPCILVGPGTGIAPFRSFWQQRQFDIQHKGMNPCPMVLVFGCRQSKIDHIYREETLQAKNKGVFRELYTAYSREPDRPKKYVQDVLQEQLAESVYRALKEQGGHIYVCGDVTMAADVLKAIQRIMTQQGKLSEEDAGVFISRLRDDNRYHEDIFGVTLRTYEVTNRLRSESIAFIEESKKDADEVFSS
Kind of experiment: Screen A: neuronal nitric oxide synthetase inhibiting activity. It counts as biochemical. The settings on record: enzyme from rat hippocampus or cerebellum; 22° C., pH 7.4, 10 minutes; read-out: IC50 in Screen A (neuronal isoform).
Experimental: Enzyme was isolated from rat hippocampus or cerebellum. The cerebellum or hippocampus of a male Sprague-Dawley rat (250-275 g) is removed following CO2 anaesthesia of the animal and decapitation. Cerebellar or hippocampal supernatant is prepared by homogenisation in 50 mM Tris-HCl with 1 mM EDTA buffer (pH 7.2 at 25° C.) and centifugation for 15 minutes at 20,000 g. Residual L-arginine is removed from the supernatant by chromatography through Dowex AG-50W-X8 sodium form and hydrogen form columns successively, and further centrifugation at 1000 g for 30 seconds. […]
Labelled L-citrulline is separated from labelled L-arginine by chromatography over a Dowex AG-50W-X8 200-400 mesh column. 1 ml of each terminated reaction is added to an individual 1 ml column and the eluant combined with that from two 1 ml distilled water washes and 16 ml of scintillation cocktail The L-citrulline is then quantified by scintillation counting. […]

pIC50: −log10 of the molar value.

T1 sequence (P29474 2-1203): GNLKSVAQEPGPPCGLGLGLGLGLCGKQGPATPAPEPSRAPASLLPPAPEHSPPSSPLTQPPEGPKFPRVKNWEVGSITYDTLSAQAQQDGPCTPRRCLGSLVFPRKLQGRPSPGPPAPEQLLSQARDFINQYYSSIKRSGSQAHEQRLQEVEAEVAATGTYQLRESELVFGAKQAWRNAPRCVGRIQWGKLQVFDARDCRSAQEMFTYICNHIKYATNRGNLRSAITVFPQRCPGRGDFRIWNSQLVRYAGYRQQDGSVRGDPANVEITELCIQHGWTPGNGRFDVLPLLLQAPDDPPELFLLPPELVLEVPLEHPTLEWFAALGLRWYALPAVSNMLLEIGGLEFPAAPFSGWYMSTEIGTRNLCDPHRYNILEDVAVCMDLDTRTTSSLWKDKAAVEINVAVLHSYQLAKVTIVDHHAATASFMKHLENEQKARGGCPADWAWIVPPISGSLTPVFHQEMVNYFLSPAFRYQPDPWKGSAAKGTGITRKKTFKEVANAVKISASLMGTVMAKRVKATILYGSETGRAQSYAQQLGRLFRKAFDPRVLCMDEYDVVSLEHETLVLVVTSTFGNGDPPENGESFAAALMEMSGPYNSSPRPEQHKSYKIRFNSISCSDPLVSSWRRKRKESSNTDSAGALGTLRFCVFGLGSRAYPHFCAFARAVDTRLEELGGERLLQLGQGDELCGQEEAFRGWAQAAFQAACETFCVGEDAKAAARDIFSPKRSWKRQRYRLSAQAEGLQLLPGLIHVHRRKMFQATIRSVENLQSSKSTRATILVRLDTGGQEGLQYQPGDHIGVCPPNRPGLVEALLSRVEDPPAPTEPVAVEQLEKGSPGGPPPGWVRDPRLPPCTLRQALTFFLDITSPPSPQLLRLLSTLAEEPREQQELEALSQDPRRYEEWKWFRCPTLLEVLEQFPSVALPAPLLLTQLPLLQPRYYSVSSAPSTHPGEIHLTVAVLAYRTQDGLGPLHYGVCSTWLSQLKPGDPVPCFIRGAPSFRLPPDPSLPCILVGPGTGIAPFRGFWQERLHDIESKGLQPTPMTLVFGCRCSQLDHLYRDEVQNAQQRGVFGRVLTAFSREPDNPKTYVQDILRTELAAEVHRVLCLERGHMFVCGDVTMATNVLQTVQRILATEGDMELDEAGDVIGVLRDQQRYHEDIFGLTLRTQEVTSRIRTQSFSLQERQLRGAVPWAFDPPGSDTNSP

`N=C(NCCC[C@H](N)C(=O)O)N[N+](=O)[O-]` [N-nitro-L-arginine, reference compound]: in experiment [1] (at a concentration of 1 μM, HUVEC enzyme, read-out: inhibition of nitric oxide synthetase (reference standard, Screen C)), the inhibition at 1 µM lay within 70 to 90%.

As to `N=C(Nc1ccc2c(c1)CC(NCc1ccccc1)C2)c1cccs1` (stereo not shown) [Example 1, N-((2-(Phenylmethyl)amino)indan-5-yl)-2-thiophenecarboximidamide dioxalate], the “IC50 in Screen B relative to that obtained in Screen A (selectivity)” value in experiment [2] is “more than 10 times”. The “IC50 in Screen C relative to that obtained in Screen A (selectivity)” value in experiment [1] (endothelial IC50 / neuronal IC50) is recorded as “more than 10 times”. Also, the negative-log IC50 (pIC50) in experiment [3] was over 5.00.
